# Laboratory results published in patent US20230346831A1, “METHODS FOR TREATING […] USING LOW DOSE CARBON MONOXIDE” (priority 2020, published 2023).
# Entries after “also recorded” stand apart in the source; their conditions may differ.
# Key:
# Type in all cases: cell-based, human
# MDA-MB-231 cells = assay: proliferation assay (crystal violet, OD595); settings: 16 hours
# Experimental: (§1) Proliferation of different cancer cells under control air or 250 ppm CO treatment with or without supplement of 30 µM hemin was determined. Indicated cell lines cell lines were seeded in the 24-well plate in normal growth media. 16 hours later, cells were fixed, stained with crystal violet, and lysed by methanol. OD595 were measured from triplicates of each cell type. Error bars represent SEM. *: P < 0.05, two-sided t-test. Scale bar, 100 µm.
# (§2) 6.5 mm Transwell with 8.0 µm Pore Polycarbonate Membrane Insert (Corning, NY, Cat. No. 3422) was used for the cell migration assay (FIG. 1J). After 16 hours of incubation, cells migrated to the opposite side of the upper chambers were fixed with 4% paraformaldehyde, stained with 0.2% crystal violet for 30 min and counted in five fields under × 20 magnification. In parallel, cells were seeded on 24-well plates for proliferation assay. Cells for proliferation control were fixed with 4% paraformaldehyde, stained with 0.2% crystal violet for 30 min and lysed with methanol to release the crystal violet as described by M. Feoktistova, P. Geserick, & M. Leverkus, Cold Spring Harb Protoc 2016, pdb prot087379 (2016). The optical density was measured at 595 nm (OD595). To supplement heme/hemin in the transwell migration assay, 30 µM hemin (MedChemExpress, Monmouth Junction, NJ, Cat. No. HY-19424) was added to both the cell suspension in the upper chambers and the bottom wells.
# To examine whether CO has an effect on tumor cell migration, in vitro transwell migration assays were performed. […] Cell migration through the transwell membrane along a serum gradient (Table 1) after 16 hours in the presence or absence of 250 ppm CO were measured.
# 5 × 10^4 MDA-MB-231-TGL cells were seeded in the upper chamber of 8-µm porous polycarbonate membranes with DMEM containing 0% FBS, 0.2 mM L-glutamine and 1% penicillin/streptomycin. […] The optical density was measured at 595 nm (OD595).
# [1] = tested on: intracellular heme/hemin levels; assay: heme colorimetric assay of intracellular heme
# Experimental: Cells were grown to 75-80% confluence in 10-cm cell culture plates and collected in 1 ml cold PBS by cell scraper. 10 µl of the cells was transferred to a new tube for protein lysate preparation and protein concentration measurement. The rest of the cells were lysed in Heme extraction buffer (acetone: HCl: water = 25: 1.3: 5) as described by J. Hooda, M. Alam, & L. Zhang, J Vis Exp, e51579 (2015). Heme levels were measured using a heme colorimetric assay kit (BioVision, Milpitas, CA, Cat. No. K672-100) and normalized by the protein concentration of each sample.
# To investigate whether 250 ppm CO induces hypoxia, HiF1α protein levels in low-dose CO-treated MCF7/TGL and MDA-MB-231/TGL cells were examined. Compared to the control cells grown in a standard tissue culture incubator, HiF1α protein levels were not changed after 250 ppm CO treatment for 16 hours (FIG. 4A). To identify genes and pathways that were affected by 250 ppm CO, RNA-Seq and gene set enrichment analysis (GESA) of MCF7 and MDA-MB-231 cells were performed after 16 hours in a CO incubator or in a regular cell culture incubator. […] To assess the intracellular heme levels affected by low-dose CO treatment, oxidized heme levels in the form of hemin (Fe^3+ state) were measured because free heme (Fe^2+ state) is readily oxidized and cannot be measured. […]
# MCF7 cells = assay: proliferation assay (crystal violet, OD595); settings: 16 hours
# Experimental: as §1, §2
# (§3) To examine whether CO has an effect on tumor cell migration, in vitro transwell migration assays were performed. Various human cancer cell lines, including 3 types of breast cancer (ER^+: MCF7 cells, HER2^+: HCC1954 cells, triple-negative breast cancer (TNBC): MDA-MB-231 cells), pancreatic ductal adenocarcinoma (PDAC) (8988T cells), pancreatic neuroendocrine tumor (PNET) (CM cells), colon cancer (SW480 cells), prostate cancer (22Rv1 cells), liver cancer (HepG2 cells), and lung cancer (H1975 cells) were seeded in the upper chamber of 8-µm porous polycarbonate membranes. Cell migration through the transwell membrane along a serum gradient (Table 1) after 16 hours in the presence or absence of 250 ppm CO were measured.
# H1975 cells = assay: proliferation assay (crystal violet, OD595); settings: 16 hours
# Experimental: as §1, §2, §3
# 22Rv1 cells = assay: proliferation assay (crystal violet, OD595); settings: 16 hours
# Experimental: as §1, §2, §3
# HCC1954 cells = assay: proliferation assay (crystal violet, OD595); settings: 16 hours
# Experimental: as §1, §2, §3
# 8988T cells = assay: proliferation assay (crystal violet, OD595); settings: 16 hours
# Experimental: as §1, §2, §3
# CM cells = assay: proliferation assay (crystal violet, OD595); settings: 16 hours
# Experimental: as §1, §2, §3
# SW480 cells = assay: proliferation assay (crystal violet, OD595); settings: 16 hours
# Experimental: as §1, §2, §3
# [2] = tested on: cancer cells across different cancer types; assay: in vitro transwell migration assay, statements across cancer types; settings: 16 hours
# Experimental: Migration of different cancer cells under control air or 250 ppm CO treatment with or without supplement of 30 µM hemin was determined using in vitro transwell migration chamber with a serum gradient. Indicated cell lines were seeded into the transwell inserts. 16 hours later, cells on the top of the upper chambers were removed, and cells on the bottom surface of the transwell inserts were fixed, stained with crystal violet, and counted from eight randomly picked fields in three independent experiments. Error bars represent SEM. *: P < 0.05, two-sided t-test. Scale bar, 100 µm. […]
# 6.5 mm Transwell with 8.0 µm Pore Polycarbonate Membrane Insert (Corning, NY, Cat. No. 3422) was used for the cell migration assay (FIG. 1J). After 16 hours of incubation, cells migrated to the opposite side of the upper chambers were fixed with 4% paraformaldehyde, stained with 0.2% crystal violet for 30 min and counted in five fields under × 20 magnification. […] The optical density was measured at 595 nm (OD595). […]
# To investigate whether 250 ppm CO induces hypoxia, HiF1α protein levels in low-dose CO-treated MCF7/TGL and MDA-MB-231/TGL cells were examined. […] To assess the intracellular heme levels affected by low-dose CO treatment, oxidized heme levels in the form of hemin (Fe^3+ state) were measured because free heme (Fe^2+ state) is readily oxidized and cannot be measured. […]
# [3] = 30 µM hemin, with or without 250 ppm CO
compound,measurement,setting,value
"[C-]#[O+] [CO, Carbon monoxide]",inhibitory effect on MDA-MB-231 cell proliferation by seeding density,"MDA-MB-231 cells; CO, higher density (6.25 × 10^4 or 12.5 × 10^4 cells per 24-well) compared with lower density (3.125 × 10^4 cells per 24-well)",greater inhibitory effect
same,cell proliferation,"MDA-MB-231 cells; MDA-MB-231 cells, 250 ppm CO, vs control air",did not affect
same,intracellular heme/hemin levels,"[1]; MCF7 and MDA-MB-231 cells, 250 ppm CO",significantly reduced
same,cell proliferation,"MCF7 cells; MCF7 cells, 250 ppm CO, vs control air",did not affect
same,cell proliferation,"H1975 cells; 250 ppm CO, vs control air",did not affect
same,cell proliferation,"22Rv1 cells; 250 ppm CO, vs control air",did not affect
same,cell proliferation,"HCC1954 cells; 250 ppm CO, vs control air",did not affect
same,cell proliferation,"8988T cells; 250 ppm CO, vs control air",did not affect
same,cell proliferation,"CM cells; 250 ppm CO, vs control air",did not affect
same,cell proliferation,"SW480 cells; 250 ppm CO, vs control air",did not affect
same,cancer cell migration across different cancer types,"[2]; 250 ppm CO, transwell with serum gradient, vs control air",decreases
Hemin [reference compound],cancer cell proliferation with hemin supplement,"MDA-MB-231 cells; MDA-MB-231/TGL cells, 30 µM hemin, with or without 250 ppm CO",did not alter
same,intracellular heme levels with hemin supplement,"[1]; 30 µM hemin in the medium, CO-treated cells",increased
same,cancer cell proliferation with hemin supplement,"MCF7 cells; MCF7/TGL cells, 30 µM hemin, with or without 250 ppm CO",did not alter
same,cancer cell proliferation with hemin supplement,H1975 cells; [3],did not alter
same,cancer cell proliferation with hemin supplement,22Rv1 cells; [3],did not alter
same,cancer cell proliferation with hemin supplement,HCC1954 cells; [3],did not alter
same,cancer cell proliferation with hemin supplement,8988T cells; [3],did not alter
same,cancer cell proliferation with hemin supplement,CM cells; [3],did not alter
same,cancer cell proliferation with hemin supplement,SW480 cells; [3],did not alter
same,cell migration inhibited by CO (rescue by hemin supplement),"[2]; 30 µM hemin + 250 ppm CO, transwell, cell lines not named at the place (FIGS. 1A-1I; 1C-1E)",partially restored; also recorded: rescued
